According to PubChem BioAssay (NCI):
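96-well plates; 48 h exposure; 5 concentrations. Endpoints by linear interpolation between flanking doses. Not reached: highest tested concentration assigned. TGI denotes the concentration required for complete inhibition of growth.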

Key:
Assay in all cases: DTP human tumour cell line panel, 48 h
DU-145 prostate = test system: DU-145 prostate
EKVX NSCLC = test system: EKVX NSCLC
HCT-116 colon = test system: HCT-116 colon
HL-60(TB) leukemia = test system: HL-60(TB) leukemia
LOX IMVI melanoma = test system: LOX IMVI melanoma
MDA-MB-435 = test system: MDA-MB-435
NCI/ADR-RES ovarian = test system: NCI/ADR-RES ovarian
SR leukemia = test system: SR leukemia
UACC-62 melanoma = test system: UACC-62 melanoma
NCI-H23 lung = test system: NCI-H23 lung

| SMILES | TGI (DU-145 prostate) [µM] | TGI (EKVX NSCLC) [µM] | TGI (HCT-116 colon) [µM] | TGI (HL-60(TB) leukemia) [µM] | TGI (LOX IMVI melanoma) [µM] | TGI (MDA-MB-435) [µM] | TGI (NCI/ADR-RES ovarian) [µM] | TGI (SR leukemia) [µM] | TGI (UACC-62 melanoma) [µM] | TGI (NCI-H23 lung) [µM] |
| --- | --- | --- | --- | --- | --- | --- | --- | --- | --- | --- |
| CCC(C(=O)c1ccc(OC)c(OC)c1)N(C(=O)C(F)(F)F)C(C)c1ccccc1 (configuration not stated) | > 100 | > 100 | > 100 | > 100 | > 100 | > 100 | > 100 | > 100 | > 100 |  |
| CCN1CCC(O)(C(C(=O)O)c2ccccc2)CC1 (configuration not stated) | > 100 | > 100 |  | > 100 | > 100 | > 100 | > 100 | > 100 | > 100 | > 100 |
| CC(C)(C)C1CCC2(CC1)c1[nH]c3ccccc3c1C1(CCC(C(C)(C)C)CC1)c1[nH]c3ccccc3c12 (configuration not stated) |  | > 100 | > 100 | > 100 | > 100 |  |  |  | > 100 | > 100 |
| Nc1c(C(=O)c2ccc(Cl)cc2)[nH]c(NCc2ccccc2)c1C(=S)Nc1ccccc1 | 13.1 | 20.1 | 3.31 | 14 | 3.19 | 3.14 | 24.2 |  | 21 | 5.95 |
| NC(=O)c1cc2ccccc2o/c1=N/O | > 100 | > 100 | > 100 | > 100 | > 100 | > 100 | > 100 | > 100 | > 100 | > 100 |
| Nc1ccc2[nH]c(-c3cccc(Cl)c3)cc(=O)c2c1 |  | > 100 |  |  |  | 2.39 | 12.4 |  | > 100 | > 100 |
| COc1ccc(Nc2nc3c([nH]2)c(=O)n(C)c(=O)n3C)cc1 | > 10 | > 10 |  | > 10 | > 10 | > 10 |  | > 10 | > 10 | > 10 |
| C=C1CC(C)(c2ccc(Nc3nc4ccccc4c4occc34)cc2)OC1=O (configuration not stated) | 28.4 | 24.5 |  | 6.34 |  | 6.09 | 20.1 | 4.53 |  | 4.55 |
| O=[N+]([O-])c1ccc(-c2ccc(-c3csc(Nc4ccccn4)n3)o2)cc1 |  |  | > 100 | > 100 | > 100 |  |  | > 100 | > 100 |  |
| CC1(C)OCC2OC3([C@H]4OC(C)(C)O[C@@H]4CO)OC(C)(C)OC3C2O1 (some centres not stated) | > 100 | > 100 | > 100 |  | > 100 | > 100 | > 100 | > 100 | > 100 | > 100 |
| CCC(=O)Oc1c2ccsc2c(OC(=O)CC)c2ccsc12 | 0.679 | 2.51 | 1.79 |  |  | 0.159 | 0.832 | 0.806 | 0.439 | 0.364 |
| COc1cc2c(/C=C3/C(=O)Nc4ccccc43)c(Cl)[nH]c2cc1C | 1.08 | 25.1 | 11 | 3.34 | 15.4 |  | 0.894 | 10.1 | 15.5 | 0.879 |
| O=C(N/N=C/c1cc(Br)cc(Br)c1[O-])c1ccccc1O.O=C(N/N=C/c1cc(Br)cc(Br)c1[O-])c1ccccc1O.[Fe+2] |  | 50.3 | 10.6 | 11.2 | 22.7 |  |  |  | 10.5 | 9.66 |
| COc1ccc2c(c1)CN1C(=N2)CSC1c1ccccc1Cl (configuration not stated) |  | 35.4 | 33.1 | 24.9 | 28.9 | 39.9 | 53.8 | 27 | 34.6 | 3.45 |
| COc1c(Br)cc(CC(N)=O)c(O)c1Br |  | > 100 | > 100 | > 100 | > 100 |  |  | > 100 | > 100 | > 100 |
| COC(=O)C1=Nc2c(C)nn(-c3ccccc3)c2N=C(c2ccc([N+](=O)[O-])cc2)C1 | > 10 |  | > 10 | > 10 | > 10 | > 10 | > 10 | > 10 | > 10 | > 10 |
| O=C(Cc1ccc([N+](=O)[O-])cc1)OCC#CCOC(=O)Cc1ccc([N+](=O)[O-])cc1 |  | > 10 |  | > 10 | > 10 | > 10 | > 10 | > 10 | > 10 | > 10 |
| C=CCOCCCCC(C(C)=O)C(=O)OC (configuration not stated) | > 100 |  | > 100 | > 100 | > 100 |  |  | > 100 | > 100 | > 100 |
| COC(=O)Cc1c([C@H]2[C@H](CC(=O)OC)c3ccccc3N2C(C)=O)[nH]c2ccccc12 | > 100 | > 100 | > 100 | > 100 | > 100 | > 100 | > 100 |  | > 100 | > 100 |
| O=C1C=C(c2ccccc2)O/C1=C/C(=O)c1ccc(Cl)cc1 | > 100 | > 100 | 30.6 | 5.38 | 26.1 | 28.5 | 50 |  | 28.5 |  |
| O=C(Cc1ccccc1)NN1C(=O)/C(=C\c2ccc([N+](=O)[O-])cc2)SC1=Nc1ccccc1 | > 100 | > 100 | > 100 |  |  | > 100 | > 100 |  | > 100 | > 100 |
| COC(=O)C1CC2(c3ccccc3)C(=O)c3ccccc3N2O1 (configuration not stated) |  | > 100 | > 100 | 82.1 | 81.7 |  |  | 65.3 | > 100 | > 100 |
| Cc1cc2[nH]c3c(C#N)c4c(c(=O)n3c2cc1C)CCCC4 | > 100 | > 100 | > 100 | > 100 | > 100 | > 100 | > 100 |  | > 100 | > 100 |
| CC1(C(=O)O)CCCC1C(=O)O (configuration not stated) | > 100 | > 100 | > 100 | > 100 | > 100 |  | > 100 |  | > 100 | > 100 |
| O=C1C=CC(=O)c2c(O)c(NCCc3ccc(O)cc3)c(Cl)c(O)c21 | > 10 | > 10 | > 10 | > 10 | > 10 | > 10 | > 10 |  | > 10 | > 10 |
